Results: US8828997B2, “2,3-dihydro-1H-imidazo(1,2-a)pyrimidin-5-one derivatives, preparation thereof, and pharmaceutical use thereof” (Sanofi, priority 2009, dated 2014)

Key:
Type in all cases: cell-based
[1] = system: AKT protein phosphorylated on serine 473 (pAKT-S473) in PC3 human prostate carcinoma cells; test: pAKT expression in PC3 human prostate carcinoma cells measured by western blotting (test A); conditions: PC-3, 1 to 2 h incubation, absolute IC50
Procedure: The inhibitory activity of the molecules on AKT phosphorylation is measured either by western blotting using the technique described below, or by the MSD Multi-spot Biomarker detection technique from Meso Scale Discovery also described below.
Study of pAKT Expression in PC3 Human Prostate Carcinoma Cells Measured by Western Blotting (test A):
This test is based on measuring the expression of the AKT protein phosphorylated on serine 473. The phosphorylation of AKT (pAKT) is measured by western blotting in the PC3 human prostate carcinoma line (ATCC CRL-1435), using an antibody that specifically recognises pAKT-S473.
On day 1, the PC3 cells are seeded into 6-well plates (TPP, #92006) at the concentration of 0.8×10^6 cells/well in 1800 μl of DMEM medium (DMEM Gibco #11960-044) containing 10% of foetal calf serum (SVF Gibco, #10500-056) and 1% glutamine (L-Glu Gibco #25030-024), and incubated at 37° C., 5% CO2, overnight.
On day 2, the cells are incubated in the presence or absence of the test products for 1 to 2 hours at 37° C. in the presence of 5% CO2. The molecules, diluted in dimethyl sulphoxide (DMSO Sigma #D2650), are added from a 10-times concentrated stock solution, the final percentage of DMSO being 0.1%. The molecules are tested either at a single concentration of less than or equal to 10 μM, or at increasing concentrations in a range that can extend from less than 1 nM to 10 μM.
After this incubation, the cells are lysed for the preparation of the proteins. After the culture medium has been drawn off, the cells are rinsed with 1 ml of PBS (DPBS Gibco, #14190-094), recovered by scraping in 200 μl of complete HNTG buffer and transferred into a 96-well plate (Greiner #651201), and lysed for 1 h on ice. The HNTG buffer is composed of the following mixture: 50 mM hepes, 150 mM NaCl, 1% triton, 10% glycerol, with extemporaneous addition of one Mini Protease Inhibitor Cocktail tablet (Roche 1836153) and of one Phosphatase Inhibitor Cocktail tablet (Roche104906837001) per 10 ml of buffer.
The lysate is centrifuged for 10 min at 6000 rpm. 155 μl of supernatant are recovered. 150 μl are incubated for denaturation for 5 min at 95° C. in the presence of 4× NuPAGE LDS Sample Buffer diluted 4-fold (InVitrogen ref NP0007) and of 10× NuPAGE Sample Reducing Agent diluted 10-fold (InVitrogen ref NP0009). These samples are then frozen at −20° C. 5 μl are assayed by the microBCA technique according to the technical bulletin of the MicroBCA Protein Assay Kit (Pierce #23235).
For protein separation, 20 μg of proteins are loaded on to a NU-PAGE 4-12% Bis Tris Gel 12 well (InVitrogen ref NP0322BOX) and the migration is carried out for 1 h 30 in 20× NU-PAGE MOPS SDS Running Buffer diluted 20-fold (InVitrogen ref NP0001), at 150 volts.
The gel is then transferred on to an Invitrolon PVDF membrane (Invitrogen #LC2007) permeabilised before and after a few seconds in ethanol (Ethanol Fischer Scientific #E/0600DF/15).
The transfer is carried out in a Biorad tank at 30 volts overnight or at 60 volts for 3 hours, in the presence of 20× NUPAGE Transfer Buffer diluted 20-fold (InVitrogen ref NP0006).
The membrane is then saturated in saturating solution composed of TBS (10× Tris Buffered Saline, Sigma #T5912, diluted 10-fold), 0.1% Tween 20 (Sigma #P5927) and 3% BSA (Bovine Albumin Serum Fraction V, Sigma #A4503) for 6 h after overnight transfer or else for 1 h after transfer for a period of 3 h.
The primary antibodies are diluted to 1/1000 for the anti-phospho AKT-Ser473 antibody (1931-12, rabbit monoclonal, cat#4058 from Cell Signaling Technology Abcam), in saturating solution composed of PBS, 0.1% Tween 20 and 3% BSA, and then shaken overnight at 4° C.
Two rinses for 5 min in washing solution composed of TBS and 0.1% Tween 20 are carried out before hybridisation of the secondary antibodies. […]

[2] = system: translocation of the LC3 protein in Hela GFP-LC3 cells; test: Translocation of the LC3 protein in Hela human cells measured by image analysis cytometry (test C, autophagy); conditions: Homo sapiens, HeLa, 2 h, EBSS + 10 μM hydroxychloroquine, cells with LC3 granulations, absolute IC50
Method in brief: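 HeLa clone stably expressing GFP-LC3, starved in EBSS with 10 μM hydroxychloroquine plus compound (10 nM to 1 μM range, 0.1% DMSO) for 2 h at 37 °C. After PFA fixation and Hoechst staining, LC3 translocation read by image analysis cytometry; IC50 from dose-response curves, mean of 2 independent experiments.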

[3] = system: P. falciparum (highly chloroquine-resistant strain Fcm29-Cameroon); test: Antimalarial activity test (radioactive micromethod of Desjardins, tritiated hypoxanthine incorporation); conditions: Plasmodium falciparum, Erythrocyte, infected human erythrocytes, 48 h
Procedure: Antimalarial Activity Test
The antimalarial activity tests are carried out according to the radioactive micromethod of Desjardins (R. E. Desjardins, C. J. Canfield, J. D. Haynes, J. D. Chulay, Antimicrob. Agents Chemother., 1979, 16, 710-718). The assays are carried out in 96-well microplates (Test Plates Ref. 92696, Techno Plastic Products Ag, Zollstrasse 155, CH-8219 Trasadingen). The P. falciparum strains are cultured in solutions of RPMI 1640 supplemented with 5% of human serum with a haematocrit at 2% and a blood parasite concentration at 1.5%. For each assay, the parasites are incubated with selected concentrations of drugs for 48 h at 37° C. in a humid atmosphere and at 5% CO2. Artemisinin, artesunate and also chloroquine diphosphate are used as reference molecules. The first dilution of the drug is prepared at 1 mg/ml in dimethyl sulphoxide. The range of dilutions of the successive daughter solutions is also prepared in dimethyl sulphoxide. Each daughter dilution is subsequently diluted to 1/50 in RPMI 1640 supplemented with 5% of human serum, all the dilutions being carried out at 37° C. These dilutions are then added to the parasites in culture in the microplates. After addition of the drug, the parasites are in culture in RPMI 1640 containing 5% of human serum and 1% of dimethyl sulphoxide. The parasite growth is measured by incorporation of tritiated hypoxanthine (added 24 h after the beginning of the exposure to the drug) compared with the incorporation in the absence of drug.
The activity of the product is translated to % inhibition of the growth of P. falciparum (highly chloroquine-resistant strain Fcm29-Cameroon) at 1 μM and 0.1 μM in an in vitro test using infected human erythrocytes.

| SMILES | IC50 [1] | IC50 [2] | inhibition at 0.1 µM [3] | inhibition at 1 µM [3] |
| --- | --- | --- | --- | --- |
| C[C@@]1(C(F)(F)F)Cn2c(nc(N3CCOCC3)cc2=O)N1CCCc1ccccc1 [Example 5, (S)-2-Methyl-7-morpholin-4-yl-1-(3-phenylpropyl)-2-trifluoromethyl-2,3-dihydro-1H-imidazo[1,2-a]pyrimidin-5-one] | 30 nM | 73 nM | – | – |
| C[C@@]1(C(F)(F)F)Cn2c(nc(N3CCOCC3)cc2=O)N1CCOc1ccccc1 [Example 6, (S)-2-Methyl-7-morpholin-4-yl-1-(2-phenoxyethyl)-2-trifluoromethyl-2,3-dihydro-1H-imidazo[1,2-a]pyrimidin-5-one] | 1640 nM | 81 nM | – | – |
| CC(Cc1ccccc1)N1c2nc(N3CCOCC3)cc(=O)n2C[C@@]1(C)C(F)(F)F (single isomer, unassigned) [Example 12, (2S)-2-Methyl-1-((R) or (S)-1-methyl-2-phenylethyl)-7-morpholin-4-yl-2-trifluoromethyl-2,3-dihydro-1H-imidazo[1,2-a]pyrimidin-5-one] | 77 nM | 194 nM | – | – |
| COc1ccc(CCN2c3nc(N4CCOCC4)cc(=O)n3CC2(C)C(F)(F)F)cc1 (racemic) [Example 2, (R,S)-1-[2-(4-methoxyphenyl)ethyl]-2-methyl-7-(morpholin-4-yl)-2-(trifluoromethyl)-2,3-dihydroimidazo[1,2-a]pyrimidin-5(1H)-one] | 324 nM | 145 nM | – | – |
| C[C@@]1(C(F)(F)F)Cn2c(nc(N3CCOCC3)cc2=O)N1Cc1ccccc1 [Example 3, (S)-1-Benzyl-2-methyl-7-morpholin-4-yl-2-trifluoromethyl-2,3-dihydro-1H-imidazo[1,2-a]pyrimidin-5-one] | 634 nM | 493 nM | 15% | 95% |
| C[C@@]1(C(F)(F)F)Cn2c(nc(N3CCOCC3)cc2=O)N1CCc1ccc(N2CCOCC2)cc1 [Example 15, (S)-2-Methyl-7-morpholin-4-yl-1-[2-(4-morpholin-4-ylphenyl)ethyl]-2-trifluoromethyl-2,3-dihydro-1H-imidazo[1,2-a]pyrimidin-5-one] | 121 nM | 72 nM | 39% | 101% |
| CC(c1ccccc1)N1c2nc(N3CCOCC3)cc(=O)n2C[C@@]1(C)C(F)(F)F (mixture of isomers) [Example 16, (2S)-2-Methyl-7-(morpholin-4-yl)-1-((R) and (5)-1-phenylethyl)-2-(trifluoromethyl)-2,3-dihydroimidazo[1,2-a]pyrimidin-5(1H)-one] | 79 nM | – | – | – |

Now those with a lower IC50 [1], led by results:

| IC50 [1] | IC50 [2] | SMILES | inhibition at 0.1 µM [3] | inhibition at 1 µM [3] |
| --- | --- | --- | --- | --- |
| 25 nM | 107 nM | C[C@@]1(C(F)(F)F)Cn2c(nc(N3CCOCC3)cc2=O)N1CCc1ccccc1 [Example 4, (S)-2-Methyl-7-morpholin-4-yl-1-phenethyl-2-trifluoromethyl-2,3-dihydro-1H-imidazo[1,2-a]pyrimidin-5-one] | 54% | 97% |
| 16 nM | 31 nM | C[C@@]1(C(F)(F)F)Cn2c(nc(N3CCOCC3)cc2=O)N1C[C@@H](O)c1ccccc1 [Example 10] | 38% | 97% |
| 15 nM | 13 nM | C[C@@H](CN1c2nc(N3CCOCC3)cc(=O)n2C[C@@]1(C)C(F)(F)F)c1ccccc1 [Example 8, (S)-2-Methyl-7-morpholin-4-yl-1-((R)-2-phenylpropyl)-2-trifluoromethyl-2,3-dihydro-1H-imidazo[1,2-a]pyrimidin-5-one] | – | – |
